According to patent US20080206316A1, “Chromium-Fatty Acid Compounds and Methods of Making and Using Thereof” (priority 2005, published 2008):

Tested on: diabetic mice
Experiment: Fasting blood glucose in diabetic mice fed test diets
Type: in vivo, Mice (C57BL/6J)
Experimental: Mice (C57BL/6J) weighing 20-grams were fed a high fat, high sucrose diet with no added chromium (No. D01030101, Research Diets Inc., New Brunswick, N.J.). After two weeks, they were injected intraperitoneally (i.p.) with streptozotocin (in phosphate-buffered saline, PBS) at a dose of 35 mg/kg body weight on 3 consecutive days. The combination of the high fat/high sucrose diet and streptozotocin treatment produced an impaired glucose tolerance evident 7 days following the initial streptozotocin injection (FIG. 5). Glucose tolerance was measured in mice fasted overnight and then injected i.p. with 1 g glucose/kg body weight (0.25 mL of a 10% glucose solution in PBS). Blood glucose was measured using a glucometer (OneTouch Ultra, LifeScan Inc., Milpitas, Calif.) on a drop of blood obtained from the saphenous vein just prior to (0 time) and at 10, 30, 60, 90 and 120 minutes following injection.
Animals were subsequently assigned to one of four different diet treatments, six animals per group. The diets were modified from the above high fat, high sucrose diet (Table 6). Each diet contained 1.5% fish oil concentrate (40:20 EPA/DHA ethyl ester, Ocean Nutrition Canada, Ltd., Mulgrave, NS). […] The animals were fed these diets for 4 weeks, after which time, fasting blood glucose and glucose tolerance was evaluated. […]

Compound: O=C([O-])c1ccccn1.O=C([O-])c1ccccn1.O=C([O-])c1ccccn1.[Cr+3] [Cr picolinate]
- Fast blood glucose levels (diabetic mice (high fat/high sucrose diet + streptozotocin), diet with 1000 μg elemental Cr/kg diet for 4 weeks, fasted): 8.17 ± 1.8 mM
- fasting blood glucose compared to the level in the control group (diabetic mice, dietary Cr for 4 weeks): reduction in fasting blood glucose
